Legend:
[1] = molecular target: T1, PBR (Mus musculus, UniProt P50637); test: Ligand-induced release of 3H-cholesterol from membranes of IPTG-induced transformed bacteria; type: biochemical; conditions: Fig. 3F
T1 construct: inferred from vector pET15b with insertion at NdeI) (N); made in house; host or cells: Escherichia coli BL21(DE3), IPTG-induced; whole bacteria or bacterial membranes
Description: ^3H-Cholesterol uptake by E. coli cells was examined using the indicated concentrations of control or IPTG-treated transformed bacteria incubated in the presence of 6.7 nM ^3H-cholesterol (50.0 Ci/mmol) for 60 min at 37°C. Specific cholesterol uptake is defined as IPTG-induced minus basal values, E. coli protoplasts were prepared from cells grown in LB at 37°C to the logarithmic phase of growth and centrifuged at 10,000g for 5 min. The cells were washed twice in 10mM Tris-HCl buffer [pH8.0] and the pellet was resuspended in a solution containing 20%(w/w) sucrose and 0.1M Tris-HCl [pH8.0]. The cells were then suspended in 1ml of buffer per 10 OD450 and mixed. Within 1 min lysozyme was added from a 2mg/ml stock solution in distilled water to a final concentration of 100 ug/ml at 37°C, and stirring was continued for the next 12 min. The cell suspension was diluted 1:10 with 0.1M Na2EDTA prewarmed to 37°C. Continuous stirring and slow dilution over 2.5 min prevented cell lysis. More than 99% of the cells became spherical within 10 minutes (Weiss, R. L. 1978, Meth. Cell Biol. 20:141-147).

[2] = molecular target: T2, recombinant mPBR (Mus musculus, UniProt P50637); test: 3H-PK 11195 radioligand binding to IPTG-induced recombinant PBR in E. coli (Scatchard analysis); conditions: 3H-PK 11195 binding, IPTG-induced E. coli transfected with mouse PBR cDNA
T2 construct: inferred from vector pET15b with insertion at NdeI) (N); made in house; host or cells: Escherichia coli BL21(DE3), IPTG-induced; whole bacteria or bacterial membranes
Description: Binding specificity of the IPTG-induced PBR in E. coli was determined in binding studies where specific binding of ^3H-PK 11195 (1.0 nM) was measured in the presence of the indicated concentrations of the indicated ligands.
Radioligand binding assays- ^3H-1- (2-chlorophenyl)-N-methyl-N-(1-methyl-propyl)-3-isoquinolinecarboxamide (PK 11195) binding studies were performed as we previously described (Papadopoulos, V. et al. 1990, J. Biol. Chem. 265: 3772-3779; Garnier, M. et al. 1994, Mol. Pharm. 45:201-211). The dissociation constant (Kd) and the number of binding sites (Bmax) were determined by Scatchard plot analysis of the data using the LIGAND program (Munson, P. J. and Rodbard, D. 1980, Anal. Biochem. 107:220-239).

[3] = test system: isolated mitochondria; conditions: cited from earlier work

Row | Bmax [2] [pmol/mg protein] | Kd [2] [nM] | Compound | release of cholesterol from cholesterol-loaded bacterial membranes [1] | ability to mimic the effect of DBI on mitochondrial steroidogenesis [3]
1 | 0.23 | 1.1 | CCC(C)N(C)C(=O)c1cc2ccccc2c(-c2ccccc2Cl)n1 (centres unmarked) [PK 11195, 1-(2-chlorophenyl)-N-methyl-N-(1-methyl-propyl)-3-isoquinolinecarboxamide] | cholesterol was liberated from the membranes | 
2 |  |  | ODN: octadecaneuropeptide (DBI33-50) (KQATVGDINTERPGMLDF; Octadecaneuropeptide; UniProt P07108 33-50, looked up, fragment) |  | not
3 |  |  | TTN: triakontatetrapeptide, naturally occurring processing product of DBI (KTKPSDEEMLFIYGHYKQATVGDINTERPGMLDF; Triakontatetraneuropeptide; UniProt P07108 17-50, looked up, fragment) |  | able to mimic the effect of DBI

From patent EP1129112B1, “PEPTIDES CONTAINING A CHOLESTEROL RECOGNITION SEQUENCE AND THEIR USES” (Georgetown University, priority 1998, dated 1999)
